Laboratory results published in a melting point compilation (Tetko et al.; mined from patent text by program, amines drawn as free bases though some values may be those of a salt).

| melting point [°C] | SMILES |
| --- | --- |
| 193 to 194 | Cc1cccc(CCC(O)c2ccccc2)c1NC(=O)CC1c2ccccc2Oc2ccccc21 (stereo not given) |
| 135 to 137 | Cc1noc(C)c1Cn1cc(NC(=O)c2ccccn2)cn1 |
| 238 | Cc1cc(-c2cc(C(F)(F)F)n3nc(CC#N)c(C#N)c3n2)ccc1Cl |
| 222 to 224 | O=C(O)COc1ccc2c(-c3ccc(Cl)c(Cl)c3)noc2c1Cl |
| 149 to 150 | CCCN1C(=O)C2(c3ccc(N)cc3)CC(c3ccc(N)cc3)(C2)C1=O |
| > 300 | COc1ccc(-c2[nH]nc3c2C(=O)c2c(NC(=O)NCc4ccc(N)cc4)cccc2-3)cc1 |
| 104 to 105 | COC(=O)COc1ccc(CCN2CCN(c3ccncc3)CC2)cc1 |
| 158 to 160 | CN1C(=O)c2cc(N)ccc2Oc2ncccc21 |
| 122 to 124 | CC(C)c1nc(-c2ccccc2Cc2ccccc2)cc(-c2ccc(F)cc2)c1CO |
| 88.9 to 90.3 | Cc1nn(CCO)c(C)c1Sc1ccc(Cl)cc1 |
| 99 to 99.5 | CCN(CC)CCOc1cccc2c1c1cc(Cl)ccc1n2Cc1ccc(F)cc1 |
| 227 | Clc1ccc(C=CC(C=Cc2ccc(Cl)cc2)=NNC2=NCC(c3ccccc3)(c3ccccc3)N2)cc1 |
| 186 to 187 | O=C1CCCc2ccc(OCCCCN3CCN(c4cccc5c4OCCC5)CC3)nc2N1 |
| 170 to 172 | c1ccc(N(Cc2cccc3ccccc23)c2ccccc2)cc1 |
| 146 to 147 | COc1cc(CCc2ccc(Nc3ccccc3C(=O)O)cc2)cc(OC)c1OC |
| 82 | O=C(O)CCNc1ccc(CNC(=O)C2Cc3ccccc3N2S(=O)(=O)c2ccc(-c3cccc(C(F)(F)F)c3)cc2)cc1 (stereo not given) |
| 222 to 224 | Cc1ccc(C2=NNC(=O)Cc3cc4c(cc32)OCO4)cc1 |
| 294 to 296 | O=C(O)c1cccc(CNc2n[nH]c3ncnc(Nc4cccc(Cl)c4)c23)c1 |

| melting point [°C] | SMILES |
| --- | --- |
| 223 to 225 | COC(=O)c1cccc(Nc2nccc(-c3sc(N)nc3-c3ccccc3)n2)c1 |
| 173 to 175 | Cc1ccc(-c2nc3ccc(N(C)C)cn3c2CNC(=O)CC(C)C)cc1 |
| 205 to 206 | Cc1c(NC(=O)CC(C)(C)C)c(C)c2c(c1C(=O)c1ccccc1)OC[C@@H]2c1ccc(C(C)C)cc1 |
| 176 to 177 | CCOC(=O)c1nnc(-c2cc3cccc(N(C)S(=O)(=O)c4cccs4)c3[nH]2)s1 |
| 204 to 206 | O=c1c2cc(F)c(F)cc2n(-c2ccccc2F)c(=O)n1OCc1ccccc1 |
| 268 | Cn1c(N)nc2cc(CN3CCN(C(c4ccccc4)c4ccccc4)CC3)ccc21 |
| 58 to 60 | CCN(CC)SNc1ccc(Oc2ccc(C(F)(F)F)cc2Cl)cc1F |
| 102 to 103 | Fc1ccc(COc2ncc(F)c(N=CN3CCCC3)n2)cc1 |
| 116 to 118 | COc1ccc(C(=O)Oc2cc(OCCO/N=C/c3ccc(C(C)(C)C)cc3)ccc2C(=O)O)cc1 |
| 109 to 110 | COc1cc2c(cc1OCc1ccccc1)C(C#N)(Sc1ccccc1)C2 (stereo not given) |
| 158 to 161 | O=C1C(=Cn2ccnc2)c2ccccc2N1c1ccccc1 |
| 174 | Cn1c(=O)cc(-c2cccc(Cl)c2)c2cc(C(=O)c3ccc([N+](=O)[O-])cc3)ccc21 |
| 140 to 142 | CC(=O)Nc1ccc(-c2cc(C(=O)c3cc(-c4ccc(NC(C)=O)cc4)c(N4CCOCC4)s3)sc2N2CCOCC2)cc1 |
| 95 to 98 | O=C(COc1cc(F)ccc1C(=O)NCc1cccc([N+](=O)[O-])c1)OCc1ccccc1 |
| 200 to 203 | O=C(CN1CCC(CCc2ccccc2)CC1)Nc1ccc2c(c1)OCC(=O)N2 |
| 145 to 147 | Cc1ccc(COc2cccnc2NC(=S)Nc2ccc(Cl)cc2)cc1 |
| 144 to 146 | CCCCc1nc2c(N)nc3ccccc3c2n1CCCCCCl |

More lines, now with the values behind:

| SMILES | melting point [°C] |
| --- | --- |
| COC(=O)c1c(C)[nH]c(C)c1C1=CC(=O)c2ncccc2C1=O | 237 to 241 |
| O=C1CCCN1C(=O)NCCS(=O)c1ccccn1 (stereo not given) | 120 |
| CCc1cc(C#N)ccc1N1C(=O)C(=O)N(C(C)(C)CC)C1=S | 173 |
| CCCCCCCCCCCCCCCC(=O)SC1CCN(C(C(=O)OC)c2ccccc2F)CC1 (stereo not given) | 44 to 47 |
| CC(C)(S)CN1CCN(c2ccccn2)CC1 | 108 to 110 |
| CCOC(=O)C1CC(O)CN1C(=O)c1ccc(OC)cc1 (stereo not given) | 64 |
| CNS(=O)(=O)c1cc(C(=O)NCC2CCCN2CC2CC2)c(OC)cc1N (stereo not given) | 173 to 174 |
| CC1(CN2CCN(C(=O)Cc3ccc(Cl)c(Cl)c3)CC2)Cn2cc([N+](=O)[O-])nc2O1 (stereo not given) | 189 to 191 |
| Cc1cc2ncnn2nc1OCCCC(C)(C)CCS(N)(=O)=O | 154 to 155 |
| Cc1onc(-c2ccccc2)c1C(=O)NC1C(=O)N2C1SCC(C)(Cl)C2C(=O)O (stereo not given) | 210 |
| CC(=O)OC1CC2(C)C(=O)CCC2C2C(CCCCCCCCCCl)CC3=CC(=O)CCC3C12 (stereo not given) | 113 to 115 |
| CCOC(C)c1cc(C(=O)OC)c(N)cc1C(F)(F)F (stereo not given) | 100 to 103 |
| CCNCC1CCN(c2cc3c(cc2Cl)c(=O)c(C(=O)O)cn3C2CC2)C1 (stereo not given) | > 310 |
| CC(=O)OC1=C(C=O)C=C2OCCC2C1 (stereo not given) | 68 to 70 |
| CCOC(=O)c1csnc1-c1ccc(C(F)(F)F)cc1 | 63 to 64 |
| CC(=O)Oc1c(C(C)(C)C)cc2c(c1C(C)(C)C)CC(C)(C)O2 | 97.7 |
| Nc1cc(C2=NOC(c3cc(Cl)cc(Cl)c3)(C(F)(F)F)C2)ccc1C(=O)NCC(F)(F)F (stereo not given) | 78 to 79 |
| CP(=O)(O)C(CCc1ccccc1)NC(=O)C(F)(F)F (stereo not given) | 138 to 145 |

| SMILES | melting point [°C] |
| --- | --- |
| CCOc1c([N+](=O)[O-])cnn1-c1c(Cl)cc(C(F)(F)F)cc1Cl | 84 to 86 |
| O=C(NOCC(O)CN1CCCCC1)Nc1cccc(Cl)c1 (stereo not given) | 117 to 118 |
| C=C(Br)Cc1cc2c(C)cc(=O)oc2c(C)c1O | 154 to 161 |
| N#Cc1cc(=O)c2ccc(CBr)cc2o1 | 162 to 166 |
| NC1=CC=C(c2ccccc2)CC1(Cl)C(O)(C1CC1)C1CC1 (stereo not given) | 90 to 92 |
| O=C(CCC1CCCCC1)NC1N=C(c2ccccc2)c2ccccc2-n2c1noc2=O (stereo not given) | 226 |
| CCC12CCC(=O)C=C1c1c(cc(OCC#N)c(Cl)c1Cl)C2 (stereo not given) | 171 to 172 |
| O=Cc1cc2cc3c(cc2nc1Cl)OCCO3 | 222 to 224 |
| O=C(Cc1ccccc1C(=O)O)Nc1cccc(/C=C/c2csc(C3CCC3)n2)c1 | 198 to 199 |
| Cc1cn(CC#CCN2CCCC2=O)cn1 | 134 to 137 |
| C#CCn1cc(F)c(SC)nc1=O | 101 to 102 |
| CN(C(=O)c1ccc2nonc2c1)C1CCOC(=O)C1 (stereo not given) | 169 to 171 |
| CCCCN(C=Nc1nnnc2c1ncn2C1CC(O)C(CO)O1)CCCC (stereo not given) | 107 to 109 |
| CNC(=O)c1ccc(N(CC(=O)OC(C)(C)C)C(=O)OC(C)(C)C)cc1 | 164 to 166 |
| Cc1cc(-n2cncn2)cc2c1NC(=O)CC2 | 258 to 259 |
| CC(C)(C)c1ccc(NC(Nc2ccc(C(C)(C)C)cc2)Nc2ccc(C(C)(C)C)cc2)cc1 | 157 to 158 |
| Cn1c(Cl)c([N+](=O)[O-])c(=O)n(C)c1=O | 91 to 92 |
